Assay results published in patent EP2177216A1, “Use of dianhydrohexite mononitrate derivatives as healing agents” (LACER, S.A., priority 2008, dated 2010).

Tested on: full thickness wound (2 x 2 cm)
Assay: Wound healing (wound contraction and re-epithelialization) after topical hydrogel application to a full thickness skin wound in rats
Type: in vivo, Male Wistar rats
Method: Male Wistar rats provided by Janvier, Espana weighing 150 - 200 g were housed in our animal facilities in groups of 3 animals, being each group in a conventional animal facility where the environmental temperature and relative humidity are monitored and controlled. The lighting schedule in the animal facility is 12 hours light and 12 hours dark. The rats were used after an acclimatization period of five days. After a week quarantine period animals were dosed.
The solutions were allowed to attain dissolution equilibrium for a period of 8 h. The appropriate amount of compound of formula (I) was added to the hydrogel solution for homogenization. […] The hydrogels were used immediately after preparation.
Rats were anesthetized with sodium pentobarbital (40 mg/kg, i.p.) before treatments application to keep the animal calm to allow absorption of the products.
The dorsal surface was shaved and a full thickness wound (2 x 2 cm) was made on the back of each rat by removing the skin (epidermis and dermis) and exposing paniculus carnosus.
Groups of 5 rats for treatment were used, and 0.5 g of hydrogel was topically applied in a wound (2 x 2 cm) on the back of each rat.
Treatments were applied from the first day until fourth day after wounding. […] From the fifth day post-wounding, lesions were left uncovered in all groups. The animals were housed in individual cages with free access to food and water. […]
The area of the wounds (cm^2) and % re-ephitelización were estimated by the difference between the total lesion area and the wound area still uncovered.
The efficacy of treatments was evaluated by measuring wound area and percentage of re-epithelialization vs total wound area.

[1] = day 5, 0.5 g of hydrogel topically applied from first until fourth day after wounding, groups of 5 rats
[2] = day 8, 0.5 g of hydrogel topically applied from first until fourth day after wounding, initial wound 2 x 2 cm
[3] = versus control hydrogel, from wound area at day 8

Row | Compound | % Re-epithelialization (day 5) [1] [%] | Wound area (cm^2) (day 8) [2] | % Wound reduction vs control [3] [%] | % Re-epithelialization (day 5) (rat, in vivo) [%] | % Wound reduction vs control (rat, in vivo) [%] | Wound area (cm^2) (day 8) (rat, in vivo)
1 | CC(=O)S[C@@H]1CO[C@H]2[C@@H]1OC[C@H]2O[N+](=O)[O-] [Compound 2, 2-acetylthioisomanide 5-mononitrate] | 100 | 1.4 | 60 |  |  | 
2 | O=[N+]([O-])O[C@@H]1CO[C@H]2[C@@H]1OC[C@@H]2SS[C@H]1CO[C@H]2[C@@H]1OC[C@H]2O[N+](=O)[O-] [Compound 3, 5'5'-dinitrato-2,2'ditioisosorbide] | 100 | 1.7 | 51 |  |  | 
3 | CS(=O)(=O)[C@H]1CO[C@H]2[C@@H]1OC[C@H]2O[N+](=O)[O-] [Compound 5, 2-Methylsulfonylisosorbide 5-mononitrate] | 90 | 1.7 | 51 |  |  | 
4 | O=[N+]([O-])O[C@@H]1CO[C@H]2[C@@H]1OC[C@@H]2O [Compound 7, Isosorbide 5-mononitrate, reference compound] |  |  |  | 60 | 60 | 1.4
5 | CS[C@H]1CO[C@H]2[C@@H]1OC[C@H]2O[N+](=O)[O-] [Compound 4, 2-Methylthioisosorbide 5-mononitrate] | 100 | 1.1 | 69 |  |  | 
6 | CC(=O)S[C@H]1CO[C@H]2[C@@H]1OC[C@H]2O[N+](=O)[O-] [Compound 1, 2-acetylthioisosorbide 5-mononitrate] | 100 | 1.2 | 66 |  |  | 
7 | CCC[S+]([O-])[C@H]1CO[C@H]2[C@@H]1OC[C@H]2O[N+](=O)[O-] (stereo partly drawn) [Compound 6, 2-[(R,S)-propylsulfinyl]isosorbide 5-mononitrate] | 90 | 1.1 | 69 |  |  | 
